ChEMBL document CHEMBL1781940, “Cytotoxic and PPARs transcriptional activities of sterols from the Vietnamese soft coral Lobophytum laevigatum” (Bioorg Med Chem Lett, 2011)
pIC50: −log10 of the molar value. Calls of active or inactive are those of the source. No cut-off for these calls is given here.

Experiments:
HepG2 [1] = assay: Transactivation of PPAR transcriptional activity expressed in human HepG2 cells co-expressing PPRE-Luc at 1 uM after 24 hrs by luciferase reporter gene assay relative to negative control; type: cell-based
HCT-116 [2] = assay: Cytotoxicity against human HCT116 cells after 24 hrs by MTT assay; type: functional, cell-based; conditions: for pIC50: HCT-116, 24 h
HepG2 [3] = assay: Transactivation of PPAR transcriptional activity expressed in human HepG2 cells co-expressing PPRE-Luc after 24 hrs by luciferase reporter gene assay relative to negative control; type: cell-based
HepG2 [4] = assay: Transactivation of PPAR transcriptional activity expressed in human HepG2 cells co-expressing PPRE-Luc at 10 uM after 24 hrs by luciferase reporter gene assay relative to negative control; type: cell-based
A549 [5] = assay: Cytotoxicity against human A549 cells after 24 hrs by MTT assay; type: functional, cell-based; conditions: for pIC50: A549, 24 h
HL-60 [6] = assay: Cytotoxicity against human HL60 cells after 24 hrs by MTT assay; type: functional, cell-based; conditions: for pIC50: HL-60, 24 h
HL-60 [7] = assay: Induction of apoptosis in human HL60 cells assessed as chromatin condensation apoptotic bodies at 5.6 uM after 24 hrs using Hoechst 33342 staining and fluorescent microscopy; type: functional, cell-based
HCT-116 [8] = assay: Induction of apoptosis in human HCT116 cells assessed as chromatin condensation apoptotic bodies at 3.2 uM after 24 hrs using Hoechst 33342 staining and fluorescent microscopy; type: functional, cell-based
A549 [9] = assay: Induction of apoptosis in human A549 cells assessed as chromatin condensation apoptotic bodies at 4.5 uM after 24 hrs using Hoechst 33342 staining and fluorescent microscopy; type: functional, cell-based

SMILES | fold change (FC) (HepG2 [1]) | Activity (HCT-116 [2]) | Activity (HepG2 [3]) | fold change (FC) (HepG2 [4]) | Activity (A549 [5]) | Activity (HL-60 [6]) | pIC50 (HCT-116 [2]) | pIC50 (A549 [5]) | pIC50 (HL-60 [6]) | Activity (HL-60 [7]) | Activity (HCT-116 [8]) | Activity (A549 [9])
CC(C)[C@@H](C)CC[C@@H](C)[C@H]1CC[C@H]2[C@@H]3[C@H](O)C=C4C[C@@H](O)CC[C@]4(C)[C@H]3CC[C@]12C | 1.2 | inactive | Dose-dependent effect | 2.5 | inactive | inactive | – | – | – | – | – | –
C[C@H]1C[C@]2(O[C@H]3C[C@H]4[C@@H]5CC=C6C[C@@H](O)CC[C@]6(C)[C@H]5CC[C@]4(C)[C@H]3[C@@]2(C)O)OC1(C)C | 1.4 | – | Dose-dependent effect | 2 | – | – | 5.16 | < 4.70 | < 4.70 | – | – | –
CC(C)CCC[C@@H](C)[C@H]1CC[C@H]2[C@@H]3CC=C4C[C@@H](O)CC[C@]4(C)[C@H]3CC[C@]12C | – | inactive | – | – | inactive | inactive | – | – | – | – | – | –
CC(=O)[C@H]1CC[C@H]2[C@@H]3CC=C4C[C@@H](O)CC[C@]4(C)[C@H]3CC[C@]12C | 1.6 | inactive | Dose-dependent effect | 2.1 | inactive | inactive | – | – | – | – | – | –
O=C1c2c(O)ccc(O)c2C(=O)c2c(NCCNCCO)ccc(NCCNCCO)c21 [MITOXANTRONE] | – | – | – | – | – | – | – | – | 5.09 | – | – | –
CC(C)[C@H](C)[C@H](C)[C@@H](O)[C@]1(C)O[C@]12CC[C@H]1[C@@H]3CC[C@H]4[C@H](C)[C@@H](O)CC[C@]4(C)[C@H]3CC[C@@]12C [LOBOPHYTOSTEROL] | – | – | – | – | – | – | 5.49 | 5.35 | 5.25 | Active | Active | Active
C[C@H](CC[C@H](C)C(C)(C)O)[C@H]1CC[C@H]2[C@@H]3CC=C4C[C@@H](O)CC[C@]4(C)[C@H]3CC[C@]12C | – | – | – | – | – | – | 4.74 | < 4.70 | < 4.70 | – | – | –
